Patent publication US9603831B2, “Artemisinin and its derivatives for use in the treatment of kidney disease” (Queen Mary & Westfield College, University of London, priority 2012, dated 2017)

How the values were obtained:
Format in all cases: in vivo
[1] = test system: rats subjected to burn injury; assay: Organ injury and dysfunction induced by burn injury in the rat; details: 3 mg/kg i.v. 30 min prior to and 30 min after burn injury, 6 h after burn
Protocol: Twenty-two male Wistar rats (Harlan, Udine, Italy) weighing 300 to 350 g were anaesthetised with sodium pentobarbital (Eutasil™, 60 mg/kg i.p.; Sanofi Veterinária, Algés, Portugal), which was supplemented as required. Anaesthetised rats were shaved (dorsum and abdomen) and placed onto a thermostatically controlled heating mat (Harvard Apparatus Ltd, Kent, U.K.) and body temperature maintained at 37±1° C. by means of a rectal probe attached to a homeothermic blanket. A tracheotomy was performed to maintain airway patency and to facilitate spontaneous respiration. Thirty minutes prior to burn injury, rats were treated with vehicle or drug, as described in section 3.2. To induce burn injury, a 60% third degree skin burn was induced by immersing dorsal shaved skin in 99° C. water for 10 s using a synthetic foam template. The rats were then dried and placed over the heating mat. Rats were sacrificed at 6 hours after burn injury by overdose of the anaesthetic and serum samples obtained for analysis of organ injury and dysfunction. Rats were randomly allocated into the following groups: • (i) Sham (n=4) • (ii) Burn+10% DMSO (n=10) • (iii) Burn+Artesunate (n=9) Sham-operated rats underwent identical surgical procedures but without burn injury (immersed in room temperature water). Animals received either 10% DMSO (1 ml/kg i.v.) or artesunate (3 mg/kg i.v.) 30 min prior to burn injury and 30 min after burn injury Each data point represents measurements obtained from up to 10 separate animals. Data was assessed using Mann-Whitney U test.

[2] = test system: rats subjected to unilateral renal ischaemia/reperfusion; assay: Late administration in a recovery rat model of unilateral renal ischaemia/reperfusion injury; details: 0.3 mg/kg i.v. 24 h into reperfusion, measured at 48 h reperfusion, mean±SEM, P<0.05
Protocol: Thirty-one male Wistar rats (240-270 g, Charles River, Margate, U.K.) were used in this study. Rats were anaesthetised with a ketamine (100 mg/ml) and xylazine (20 mg/ml) mixture (2:1; 1.5 ml/kg, i.p.) and anaesthesia was maintained by supplementary injections (200 μg/kg i.p.) of ketamine/xylazine. Buprenorphine was administered at a dose of 0.1 mg/kg s.c. (0.5 ml/kg). Rats were then, placed onto a thermostatically controlled heating mat (Harvard Apparatus Ltd., Kent, U.K.) set at 37° C. A midline laparotomy was then performed. The anatomical right kidney was removed following permanent ligation of the renal artery and vein. The left renal pedicle (consisting of the renal artery, vein and nerve) was isolated and clamped using a non-traumatic microvascular clamp at time 0 for 30 min. Body temperature was maintained at 35±1° C. during ischaemia by means of measuring rectal temperature with a thermometer. After 30 min of unilateral renal ischaemia, the clamp was removed to allow reperfusion for 48 h. […]
Following the reperfusion period, ˜3.5 ml of blood was taken from the right ventricle of the heart via cardiac puncture into non-heparinised 5 ml syringes and immediately decanted into 1.3 ml serum gel tubes (Sarstedt, Germany). […] All biochemical markers in serum and urine were measured in a blinded fashion by a commercial veterinary testing laboratory (IDEXX Ltd, West Sussex, UK). […] Creatinine clearance is used as an indicator of glomerular dysfunction and is calculated as follows
Fractional excretion of sodium is used as an indicator of tubular dysfunction and is calculated as follows: […]
All data in the text and figures are presented as mean±SEM of n observations, where n represents the number of animals studied. All statistical analysis was calculated using GraphPad Prism 6 (GraphPad Software, San Diego, Calif., USA). Biochemical data was analysed by one-way ANOVA for data representing more than two groups, followed by a Dunnett's post hoc test for comparison of sham/treated groups with the control vehicle. […]

[3] = test system: rats subjected to haemorrhagic shock; assay: Organ injury and dysfunction induced by trauma haemorrhage (haemorrhagic shock) in the rat; details: for rise in serum creatinine / rise in serum urea: 4 h after resuscitation; for rise in serum creatinine / rise in serum urea / rise in serum ALT / rise in serum AST / rise in serum creatinine kinase: vs HS-rats; for decline in MAP caused by haemorrhage during the resuscitation phase: vs HS Control
Protocol: Thirty-five male Wistar rats (271±5 g) were anaesthetised with sodium thiopentone (120 mg/kg i.p., LINK Pharmaceuticals Ltd., West Sussex, UK) and anaesthesia was maintained by supplementary injections (˜10 mg/kg i.v.) of sodium thiopentone as and when required. The animals were placed onto a thermostatically controlled heating mat (Harvard Apparatus Ltd., Kent, UK) and body temperature was maintained at 37±1° C. by means of a rectal probe attached to a homeothermic blanket. A tracheotomy was performed by inserting into the lumen of the trachea a small length of polyethylene tubing [Internal Diameter (ID) 1.67 mm, Portex, Kent, UK] to maintain airway patency and facilitate spontaneous respiration. […] The right carotid artery was cannulated (ID 0.58 mm, Portex) to facilitate the withdrawal of blood using a heparinised syringe. The right jugular vein was cannulated (ID 0.40 mm, Portex) for the administration of Ringer's Lactate (RL), shed blood, test compounds and/or vehicle. The bladder was also cannulated (ID 0.76 mm, Portex) for the collection of urine. Upon completion of the surgical procedure, cardiovascular parameters were allowed to stabilise for a period of 15 min.
After the stabilisation period, blood was withdrawn via the cannula inserted in the right carotid artery in order to achieve a fall in MAP to 35±5 mmHg within 10 min. From this point onwards, MAP was maintained at 35±5 mmHg for a period of 90 min either by further withdrawal of blood during the compensation phase (MAP rises following blood withdrawal due to sympathetic response) or administration of Ringer's Lactate i.v. during the decompensation phase (animals are unable to increase and maintain high MAP). […] At 90 min after initiation of haemorrhage, resuscitation was performed with 20 ml/kg Ringer's Lactate i.v. over a period of 10 min and then half the shed blood mixed with 100 u/ml heparinised saline i.v. over a period of 50 min. At the end of 1 h resuscitation, an i.v. infusion of Ringer's Lactate (1.5 ml/kg/h) was started as fluid replacement and maintained for a further 3 h.
Four hours after the onset of resuscitation, 1.2 ml blood was collected from the right carotid artery and decanted into serum gel tubes (Sarstedt, Numbrecht, Germany), after which the heart was removed to terminate the experiment. The samples were centrifuged (9900 rpm for 3 min) to separate serum from which urea, creatinine, aspartate aminotransferase (AST), alanine aminotransferase (ALT) and creatinine kinase (CK) were measured within 24 hours (Idexx Laboratories Ltd., West Yorkshire, UK). Urine collected during the last 3 h of the experiment was analysed for creatinine levels in order to estimate creatinine clearance as an indicator of glomerular dysfunction and was calculated as follows:
[formula] 1.4 Experimental Design
Rats were randomly allocated into the following groups: • (i) Sham (n=4) • (ii) HS Control (n=10) • (iii) HS+Artesunate 1 mg/kg (n=6) • (iv) HS+Artesunate 3 mg/kg (n=7) • (v) HS+Artesunate 10 mg/kg (n=8)
Sham-operated rats underwent identical surgical procedures but without haemorrhage or resuscitation. Animals received either 10% DMSO (1 ml/kg i.v.) or artesunate (1, 3 or 10 mg/kg i.v.) on resuscitation.
All values described in the text and figures are expressed as mean±standard error of the mean (SEM) for n observations. Each data point represents biochemical measurements obtained from up to 10 separate animals. Statistical analysis was carried out using GraphPad Prism 5.03 (GraphPad Software, San Diego, Calif., USA). Data without repeated measurements was assessed by one-way ANOVA followed by Dunnett's post hoc test. Data with repeated measurements was assessed by two-way ANOVA followed by Bonferroni's post hoc test. A P value of less than 0.05 was considered to be significant.

[4] = 1 mg/kg i.v. on resuscitation, P>0.05
[5] = 3 mg/kg i.v. on resuscitation, P<0.005
[6] = 3 mg/kg i.v. on resuscitation, P<0.05
[7] = 10 mg/kg i.v. on resuscitation, P<0.005
[8] = 10 mg/kg i.v. on resuscitation, P<0.05

SMILES: C[C@H]1[C@H](OC(=O)CCC(=O)O)O[C@@H]2O[C@@]3(C)CC[C@H]4[C@H](C)CC[C@@H]1[C@@]24OO3 [artesunate]
- rise in serum ALT ([1]; P>0.05): no significant effect
- rise in serum AST ([1]; P>0.05): no significant effect
- rise in serum creatinine ([1]; vs burn + vehicle, P<0.05): significantly attenuated
- rise in serum urea ([1]; vs burn + vehicle, P<0.05): significantly attenuated
- fractional excretion of sodium ([2]; IRI+Vehicle 4.45±0.65): 1.90±0.17%
- serum urea ([2]; IRI+Vehicle 34.13±2.23): 21.63 ± 1.51 mmol/L
- serum creatinine ([2]; IRI+Vehicle 205.90±22.23): 115.4 ± 9.72 µmol/L
- rise in serum creatinine [3, 4]: no significant effect
- rise in serum urea [3, 4]: no significant effect
- decline in MAP caused by haemorrhage during the resuscitation phase [3, 4]: failed to attenuate
- rise in serum ALT [3, 4]: no significant effect
- rise in serum AST [3, 4]: no significant effect
- rise in serum creatinine kinase [3, 4]: no significant effect
- rise in serum creatinine [3, 5]: significantly attenuated
- rise in serum urea [3, 6]: significantly attenuated
- decline in MAP caused by haemorrhage during the resuscitation phase ([3]; 3 mg/kg i.v. on resuscitation, P>0.05): failed to attenuate
- rise in serum ALT [3, 5]: significantly attenuated
- rise in serum AST [3, 6]: significantly attenuated
- rise in serum creatinine kinase [3, 6]: significantly attenuated
- rise in serum creatinine [3, 7]: significantly attenuated
- decline in MAP caused by haemorrhage during the resuscitation phase ([3]; 10 mg/kg i.v. on resuscitation, P>0.05): failed to attenuate
- rise in serum ALT [3, 7]: significantly attenuated
- rise in serum AST [3, 8]: significantly attenuated
- rise in serum creatinine kinase [3, 8]: significantly attenuated
